# Columns and labels:
# Experiment in all cases: NCI single dose (10 µM) SRB screen
# CCRF-CEM = assay type: cell-based, human; conditions: leukaemia, 48 h
# HL-60(TB) = assay type: cell-based, human; conditions: leukaemia, 48 h
# K-562 = assay type: cell-based, human; conditions: leukaemia, 48 h
# MOLT-4 = assay type: cell-based, human; conditions: leukaemia, 48 h
# RPMI-8226 = assay type: cell-based, human; conditions: leukaemia, 48 h
# SR = assay type: cell-based, human; conditions: leukaemia, 48 h
# A549/ATCC = assay type: cell-based, human; conditions: non-small cell lung cancer, 48 h
# EKVX = assay type: cell-based, human; conditions: non-small cell lung cancer, 48 h
# HOP-62 = assay type: cell-based, human; conditions: non-small cell lung cancer, 48 h
# HOP-92 = assay type: cell-based, human; conditions: non-small cell lung cancer, 48 h
# NCI-H226 = assay type: cell-based, human; conditions: non-small cell lung cancer, 48 h
# NCI-H23 = assay type: cell-based, human; conditions: non-small cell lung cancer, 48 h
# NCI-H322M = assay type: cell-based; conditions: non-small cell lung cancer, 48 h
# NCI-H460 = assay type: cell-based, human; conditions: non-small cell lung cancer, 48 h
# NCI-H522 = assay type: cell-based, human; conditions: non-small cell lung cancer, 48 h
# COLO 205 = assay type: cell-based, human; conditions: colon cancer, 48 h
# HCC-2998 = assay type: cell-based, human; conditions: colon cancer, 48 h
# HCT-116 = assay type: cell-based, human; conditions: colon cancer, 48 h
# HCT-15 = assay type: cell-based, human; conditions: colon cancer, 48 h
# HT29 = assay type: cell-based, human; conditions: colon cancer, 48 h
# KM12 = assay type: cell-based, human; conditions: colon cancer, 48 h
# SW-620 = assay type: cell-based, human; conditions: colon cancer, 48 h
# SF-268 = assay type: cell-based, human; conditions: CNS cancer, 48 h
# SF-295 = assay type: cell-based, human; conditions: CNS cancer, 48 h
# SF-539 = assay type: cell-based, human; conditions: CNS cancer, 48 h
# SNB-19 = assay type: cell-based, human; conditions: CNS cancer, 48 h
# SNB-75 = assay type: cell-based, human; conditions: CNS cancer, 48 h
# U251 = assay type: cell-based, human; conditions: CNS cancer, 48 h
# LOX IMVI = assay type: cell-based, human; conditions: melanoma, 48 h
# MALME-3M = assay type: cell-based, human; conditions: melanoma, 48 h
# M14 = assay type: cell-based, human; conditions: melanoma, 48 h
# MDA-MB-435 = assay type: cell-based, human; conditions: melanoma, 48 h
# SK-MEL-2 = assay type: cell-based, human; conditions: melanoma, 48 h
# SK-MEL-28 = assay type: cell-based, human; conditions: melanoma, 48 h
compound,measurement,setting,value
"CCOC(=O)C1=C(C)NC(C)=C(C(=O)OCC(C)C)C1c1cccc(C#N)c1 (racemic) [Compound 2i, (±)-3-Ethyl 5-isobutyl 4-(3-cyanophenyl)-2,6-dimethyl-1,4-dihydropyridine-3,5-dicarboxylate]",GI% CCRF-CEM,CCRF-CEM,– (Only GI% ≥ 10 are shown)
same,GI% HL-60(TB),HL-60(TB),– (Only GI% ≥ 10 are shown)
same,GI% K-562,K-562,24%
same,GI% MOLT-4,MOLT-4,21%
same,GI% RPMI-8226,RPMI-8226,– (Only GI% ≥ 10 are shown)
same,GI% SR,SR,23%
same,GI% A549/ATCC,A549/ATCC,10%
same,GI% EKVX,EKVX,29%
same,GI% HOP-62,HOP-62,– (Only GI% ≥ 10 are shown)
same,GI% HOP-92,HOP-92,18%
same,GI% NCI-H226,NCI-H226,22%
same,GI% NCI-H23,NCI-H23,24%
same,GI% NCI-H322M,NCI-H322M,– (Only GI% ≥ 10 are shown)
same,GI% NCI-H460,NCI-H460,– (Only GI% ≥ 10 are shown)
same,GI% NCI-H522,NCI-H522,13%
same,GI% COLO 205,COLO 205,– (Only GI% ≥ 10 are shown)
same,GI% HCC-2998,HCC-2998,– (Only GI% ≥ 10 are shown)
same,GI% HCT-116,HCT-116,23%
same,GI% HCT-15,HCT-15,30%
same,GI% HT29,HT29,– (Only GI% ≥ 10 are shown)
same,GI% KM12,KM12,– (Only GI% ≥ 10 are shown)
same,GI% SW-620,SW-620,– (Only GI% ≥ 10 are shown)
same,GI% SF-268,SF-268,– (Only GI% ≥ 10 are shown)
same,GI% SF-295,SF-295,31%
same,GI% SF-539,SF-539,– (Only GI% ≥ 10 are shown)
same,GI% SNB-19,SNB-19,– (Only GI% ≥ 10 are shown)
same,GI% SNB-75,SNB-75,18%
same,GI% U251,U251,– (Only GI% ≥ 10 are shown)
same,GI% LOX IMVI,LOX IMVI,20%
same,GI% MALME-3M,MALME-3M,– (Only GI% ≥ 10 are shown)
same,GI% M14,M14,– (Only GI% ≥ 10 are shown)
same,GI% MDA-MB-435,MDA-MB-435,– (Only GI% ≥ 10 are shown)
same,GI% SK-MEL-2,SK-MEL-2,– (Only GI% ≥ 10 are shown)
same,GI% SK-MEL-28,SK-MEL-28,– (Only GI% ≥ 10 are shown)
